# Measurements: ChEMBL document CHEMBL1146994, “Advances toward new antidepressants beyond SSRIs: 1-aryloxy-3-piperidinylpropan-2-ols with dual 5-HT1A receptor antagonism/SSRI activities. Part 5” (Bioorg Med Chem Lett, 2006)
# The source made the active and inactive calls. No cut-off for these calls is given here.
# How the values were obtained:
# Rattus norvegicus [1] = assay: Increase in 5HT level in Sprague-Dawley rat hypothalamus by microdialysis at 30 mg/kg, po (basal value set at 100%); type: functional
# [2] = target: Sodium-dependent serotonin transporter (Rattus norvegicus) (UniProt P31652); assay: Receptor occupancy ex vivo by inhibition of [3H]paroxetine binding to 5HT reuptake site in Sprague-Dawley rat frontal cortex tissue at 30 mg/kg, po relative to control; type: functional, organism-based; set-up: dose 30 mg/kg
# Sequence of Sodium-dependent serotonin transporter (Rattus norvegicus) (P31652 whole entry): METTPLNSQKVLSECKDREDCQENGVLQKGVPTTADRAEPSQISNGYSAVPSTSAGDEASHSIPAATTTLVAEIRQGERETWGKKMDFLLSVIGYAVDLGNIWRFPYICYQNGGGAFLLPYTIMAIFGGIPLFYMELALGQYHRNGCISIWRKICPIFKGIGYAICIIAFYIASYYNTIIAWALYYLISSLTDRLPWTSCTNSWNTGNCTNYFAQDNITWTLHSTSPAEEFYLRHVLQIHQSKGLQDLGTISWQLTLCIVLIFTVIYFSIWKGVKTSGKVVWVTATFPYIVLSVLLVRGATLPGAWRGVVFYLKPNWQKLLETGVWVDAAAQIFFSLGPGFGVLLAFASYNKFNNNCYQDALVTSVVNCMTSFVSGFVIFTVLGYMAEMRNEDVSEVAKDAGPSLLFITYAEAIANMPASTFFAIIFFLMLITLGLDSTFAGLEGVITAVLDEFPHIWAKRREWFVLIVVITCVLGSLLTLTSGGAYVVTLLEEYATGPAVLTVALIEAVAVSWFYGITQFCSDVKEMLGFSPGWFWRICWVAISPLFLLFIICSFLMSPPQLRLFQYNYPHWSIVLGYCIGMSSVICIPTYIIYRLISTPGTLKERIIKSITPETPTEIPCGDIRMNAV
# [3] = target: T1, 5-hydroxytryptamine receptor 1A (Rattus norvegicus) (UniProt P19327); assay: Receptor occupancy ex vivo by inhibition of [3H]8-OH-DPAT binding to 5HT1A receptor in Sprague-Dawley rat frontal cortex tissue at 30 mg/kg, po relative to control; type: functional, organism-based; set-up: dose 30 mg/kg
# T1 sequence (whole entry): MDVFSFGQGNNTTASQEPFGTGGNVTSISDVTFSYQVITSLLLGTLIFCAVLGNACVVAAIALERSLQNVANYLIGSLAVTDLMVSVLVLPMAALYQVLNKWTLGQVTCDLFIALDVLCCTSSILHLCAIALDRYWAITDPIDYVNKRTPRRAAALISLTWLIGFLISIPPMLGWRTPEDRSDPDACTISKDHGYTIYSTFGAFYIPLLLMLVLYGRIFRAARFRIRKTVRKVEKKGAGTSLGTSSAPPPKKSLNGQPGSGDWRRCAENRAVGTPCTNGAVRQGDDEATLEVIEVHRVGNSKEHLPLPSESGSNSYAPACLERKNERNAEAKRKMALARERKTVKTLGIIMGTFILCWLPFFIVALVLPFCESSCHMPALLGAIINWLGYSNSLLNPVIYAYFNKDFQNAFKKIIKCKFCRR
# Rattus norvegicus [4] = assay: Ability to block PCA-induced depletion of 5HT concentration in po dosed rat brain after 2 hrs; type: functional
# Rattus norvegicus [5] = assay: Ability to block 8-OH-DPAT-induced increase of corticosterone in po dosed rat serum after 1 hr; type: functional
# [6] = target: Sodium-dependent serotonin transporter (Homo sapiens, UniProt P31645); assay: Displacement of [3H]paroxetine from 5HT reuptake site
# Sequence of Sodium-dependent serotonin transporter (P31645 whole entry): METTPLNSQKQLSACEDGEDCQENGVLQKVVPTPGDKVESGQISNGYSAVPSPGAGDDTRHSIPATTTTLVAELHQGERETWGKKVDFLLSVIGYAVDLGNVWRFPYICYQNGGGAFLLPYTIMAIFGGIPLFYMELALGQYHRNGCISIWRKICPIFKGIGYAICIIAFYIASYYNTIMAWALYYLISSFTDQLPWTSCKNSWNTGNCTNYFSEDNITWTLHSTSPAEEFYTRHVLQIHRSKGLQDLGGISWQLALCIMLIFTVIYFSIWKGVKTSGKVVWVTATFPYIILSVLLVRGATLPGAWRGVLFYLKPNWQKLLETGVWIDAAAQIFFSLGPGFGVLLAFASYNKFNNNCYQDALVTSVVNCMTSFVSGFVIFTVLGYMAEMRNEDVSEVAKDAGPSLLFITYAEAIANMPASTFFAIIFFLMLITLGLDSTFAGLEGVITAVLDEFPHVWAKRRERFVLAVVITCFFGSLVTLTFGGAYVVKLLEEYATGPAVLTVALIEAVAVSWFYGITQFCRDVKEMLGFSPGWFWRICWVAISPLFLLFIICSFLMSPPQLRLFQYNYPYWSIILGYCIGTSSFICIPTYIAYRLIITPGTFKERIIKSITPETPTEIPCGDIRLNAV
# Rattus norvegicus [7] = assay: Increase in 5HT level in Sprague-Dawley rat hypothalamus by microdialysis at 20 mg/kg, po (basal value set at 100%); type: functional
# Rattus norvegicus [8] = assay: Ability to block PCA-induced depletion of 5HT concentration in sc dosed rat brain after 2 hrs; type: functional
# Rattus norvegicus [9] = assay: Increase in 5HT level in Sprague-Dawley rat hypothalamus by microdialysis at 20 mg/kg, sc (basal value set at 100%); type: functional; settings: route subcutaneous
# Rattus norvegicus [10] = assay: Ability to block 8-OH-DPAT-induced increase of corticosterone in sc dosed rat serum after 1 hr; type: functional
# Rattus norvegicus [11] = assay: Increase in 5HT level in Sprague-Dawley rat hypothalamus by microdialysis at 10 mg/kg, po (basal value set at 100%); type: functional
# Rattus norvegicus [12] = assay: Reduction of serotonergic neuron level in dorsal raphe nucleus of anesthetized rat after 3 days of sub-chronic administration at 10 mg/kg/day; type: functional, organism-based
# Rattus norvegicus [13] = assay: Increase in 5HT level in Sprague-Dawley rat hypothalamus by microdialysis at 10 mg/kg, ip (basal value set at 100%); type: functional; settings: route intraperitoneal
Compound,Activity (Rattus norvegicus [1]),inhibition [2],inhibition [3],ED50 (Rattus norvegicus [4]),ED50 (Rattus norvegicus [5]),Ki [6],further results
Cc1cccc2sc([C@@H]3CCN(C[C@H](O)COc4cccc5[nH]ccc45)[C@@H](C)C3)cc12,210%,9%,20%,1.65 mg/kg,> 30 mg/kg,0.44 nM,
COc1cccc2sc([C@H]3CCN(C[C@H](O)COc4cccc5[nH]ccc45)[C@H](C)C3)cc12,,8%,33%,> 10 mg/kg,> 30 mg/kg,1.15 nM,Activity (Rattus norvegicus [7]): 330%
COc1cccc2sc([C@@H]3CCN(C[C@H](O)COc4cccc5[nH]ccc45)[C@@H](C)C3)cc12,368%,11%,13%,3.71 mg/kg,21.1 mg/kg,0.27 nM,
C[C@H]1C[C@H](c2cc3ccccc3s2)CCN1C[C@H](O)COc1cccc2[nH]ccc12,,-2%,1%,,,0.51 nM,ED50 (Rattus norvegicus [8]): 0.28 mg/kg; Activity (Rattus norvegicus [9]): 264%; ED50 (Rattus norvegicus [10]): 2.83 mg/kg
COc1ccc2cc([C@@H]3CCN(C[C@H](O)COc4cccc5[nH]ccc45)[C@@H](C)C3)sc2c1,140%,29%,14%,,,1.1 nM,ED50 (Rattus norvegicus [8]): 1.07 mg/kg
COc1cccc2sc([C@H]3CCN(C[C@H](O)COc4cccc5[nH]ccc45)[C@@H](C)C3)cc12,,88%,40%,,,13.6 nM,
C[C@H]1C[C@H](c2cc3ccc(F)cc3s2)CCN1C[C@H](O)COc1cccc2[nH]ccc12,479%,8%,23%,0.69 mg/kg,> 30 mg/kg,0.31 nM,ED50 (Rattus norvegicus [10]): 5.08 mg/kg
O[C@H](COc1cccc2[nH]ccc12)CN1CCC(c2cc3ccccc3s2)CC1,,80%,6%,,,16.7 nM,
COc1cccc2sc(C3CCN(C[C@H](O)COc4cccc5[nH]c(C)cc45)CC3)cc12,,,,,,51.2 nM,
Cc1cc2c(OC[C@@H](O)CN3CC[C@@H](c4cc5ccccc5s4)C[C@@H]3C)cccc2[nH]1,,17%,5%,,,,Activity (Rattus norvegicus [11]): 119%
COc1cccc2sc([C@@H]3CCN(C[C@H](O)COc4cccc5[nH]c(C)cc45)[C@@H](C)C3)cc12,,26%,-3%,3.79 mg/kg,3.2 mg/kg,,Activity (Rattus norvegicus [11]): 713%; Activity (Rattus norvegicus [12]): inactive
CNCCC(Oc1ccc(C(F)(F)F)cc1)c1ccccc1 (stereo not drawn) [FLUOXETINE],,,,,,,Activity (Rattus norvegicus [13]): 160%; Activity (Rattus norvegicus [12]): Active
COc1cccc2sc(C3CCN(C[C@H](O)COc4cccc5[nH]ccc45)CC3)cc12,,100%,4%,,,12.6 nM,
Cc1cc2c(OC[C@@H](O)CN3CC[C@@H](c4cc5cc(F)ccc5s4)C[C@@H]3C)cccc2[nH]1,315%,30%,6%,,,0.24 nM,
C[C@H]1C[C@H](c2cc3cc(Cl)ccc3s2)CCN1C[C@H](O)COc1cccc2[nH]ccc12,,39%,47%,3.65 mg/kg,26 mg/kg,0.58 nM,Activity (Rattus norvegicus [7]): 287%
COc1cccc2sc([C@@H]3CCN(C[C@H](O)COc4cccc5[nH]ccc45)[C@H](C)C3)cc12,,70%,28%,,,,
O[C@H](COc1cccc2[nH]ccc12)CN1CCC(c2cc3ccc(F)cc3s2)CC1,130%,13%,9%,,,1.99 nM,
